From publication PMC9329436, “Optimization of the 4-anilinoquin(az)oline scaffold as epidermal growth factor receptor (EGFR) inhibitors for chordoma utilizing a toxicology profiling assay platform” (Scientific Reports, 2022)
Read-outs that look alike come from different tables or passages of the source.

Columns and labels:
Assay type in all cases: biochemical
[1] = target: 320 wild-type protein kinases (Homo sapiens, UniProt P29376); settings: LTK, singlicate
Description: (§1) Table S4. Profiling of two compounds at two concentrations against 320 wild-type protein kinases; singlicate measurement; Residual activities (% of control).

[2] = target: T1, 320 wild-type protein kinases (Homo sapiens, UniProt P35626); settings: singlicate
T1 sequence (P35626 1-688): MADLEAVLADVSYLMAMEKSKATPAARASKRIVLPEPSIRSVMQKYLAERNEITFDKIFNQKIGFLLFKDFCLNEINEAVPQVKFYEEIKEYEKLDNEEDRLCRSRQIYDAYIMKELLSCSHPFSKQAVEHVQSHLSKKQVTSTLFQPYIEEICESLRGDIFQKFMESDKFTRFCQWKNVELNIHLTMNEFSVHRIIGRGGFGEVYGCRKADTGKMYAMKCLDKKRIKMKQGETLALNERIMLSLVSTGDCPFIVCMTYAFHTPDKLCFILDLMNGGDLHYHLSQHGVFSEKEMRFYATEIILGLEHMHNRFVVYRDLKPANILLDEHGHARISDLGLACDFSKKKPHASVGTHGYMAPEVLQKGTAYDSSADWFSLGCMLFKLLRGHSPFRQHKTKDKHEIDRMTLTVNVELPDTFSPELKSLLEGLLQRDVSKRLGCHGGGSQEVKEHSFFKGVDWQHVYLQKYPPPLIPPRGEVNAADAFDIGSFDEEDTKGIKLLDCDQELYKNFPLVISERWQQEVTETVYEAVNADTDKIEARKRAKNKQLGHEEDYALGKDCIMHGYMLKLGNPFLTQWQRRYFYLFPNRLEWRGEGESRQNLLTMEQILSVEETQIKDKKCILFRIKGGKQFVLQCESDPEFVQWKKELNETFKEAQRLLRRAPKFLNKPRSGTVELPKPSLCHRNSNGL
Description: as §1

[3] = target: 320 wild-type protein kinases (Homo sapiens, UniProt P49674); settings: CK1-epsilon, singlicate
Description: as §1

[4] = target: 320 wild-type protein kinases (Homo sapiens, UniProt P49841); settings: GSK3-beta, singlicate
Description: as §1

[5] = target: 320 wild-type protein kinases (Homo sapiens, UniProt P54756); settings: singlicate
Description: as §1

[6] = target: T2, 320 wild-type protein kinases (Homo sapiens, UniProt Q13163); settings: singlicate
T2 sequence (Q13163 1-448): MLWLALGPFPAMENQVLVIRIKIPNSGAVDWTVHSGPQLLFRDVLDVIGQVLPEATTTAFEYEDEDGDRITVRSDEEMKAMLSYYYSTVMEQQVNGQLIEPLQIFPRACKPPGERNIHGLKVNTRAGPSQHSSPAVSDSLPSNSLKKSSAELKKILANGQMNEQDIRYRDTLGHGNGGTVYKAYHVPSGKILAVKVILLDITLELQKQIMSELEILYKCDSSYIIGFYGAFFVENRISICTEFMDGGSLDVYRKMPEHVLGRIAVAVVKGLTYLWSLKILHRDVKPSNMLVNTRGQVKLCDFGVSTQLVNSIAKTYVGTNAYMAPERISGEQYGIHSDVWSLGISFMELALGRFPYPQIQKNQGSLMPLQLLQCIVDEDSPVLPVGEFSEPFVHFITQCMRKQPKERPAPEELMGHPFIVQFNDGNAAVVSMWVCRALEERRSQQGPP
Description: as §1

[7] = target: T3, 320 wild-type protein kinases (Homo sapiens, UniProt Q99759); settings: singlicate
T3 sequence (Q99759 1-626): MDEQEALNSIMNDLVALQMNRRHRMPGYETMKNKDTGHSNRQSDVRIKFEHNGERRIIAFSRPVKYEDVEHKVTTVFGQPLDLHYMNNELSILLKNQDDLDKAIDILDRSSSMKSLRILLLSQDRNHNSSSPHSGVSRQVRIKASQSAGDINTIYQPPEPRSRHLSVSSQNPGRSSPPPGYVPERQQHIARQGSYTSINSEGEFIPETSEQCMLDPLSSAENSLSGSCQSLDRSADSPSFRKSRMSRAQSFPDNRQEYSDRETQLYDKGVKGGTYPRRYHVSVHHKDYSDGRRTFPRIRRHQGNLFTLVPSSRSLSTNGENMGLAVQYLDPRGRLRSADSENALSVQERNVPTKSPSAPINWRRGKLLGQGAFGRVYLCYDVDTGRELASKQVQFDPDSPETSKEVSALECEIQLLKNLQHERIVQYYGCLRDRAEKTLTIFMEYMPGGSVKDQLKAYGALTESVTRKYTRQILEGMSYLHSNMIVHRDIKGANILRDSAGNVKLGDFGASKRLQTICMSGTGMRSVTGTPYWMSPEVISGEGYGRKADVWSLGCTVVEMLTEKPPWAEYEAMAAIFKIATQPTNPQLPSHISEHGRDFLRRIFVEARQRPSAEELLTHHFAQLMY
Description: as §1

Chain of 320 wild-type protein kinases (Homo sapiens, UniProt P54756) (P54756 25-1037): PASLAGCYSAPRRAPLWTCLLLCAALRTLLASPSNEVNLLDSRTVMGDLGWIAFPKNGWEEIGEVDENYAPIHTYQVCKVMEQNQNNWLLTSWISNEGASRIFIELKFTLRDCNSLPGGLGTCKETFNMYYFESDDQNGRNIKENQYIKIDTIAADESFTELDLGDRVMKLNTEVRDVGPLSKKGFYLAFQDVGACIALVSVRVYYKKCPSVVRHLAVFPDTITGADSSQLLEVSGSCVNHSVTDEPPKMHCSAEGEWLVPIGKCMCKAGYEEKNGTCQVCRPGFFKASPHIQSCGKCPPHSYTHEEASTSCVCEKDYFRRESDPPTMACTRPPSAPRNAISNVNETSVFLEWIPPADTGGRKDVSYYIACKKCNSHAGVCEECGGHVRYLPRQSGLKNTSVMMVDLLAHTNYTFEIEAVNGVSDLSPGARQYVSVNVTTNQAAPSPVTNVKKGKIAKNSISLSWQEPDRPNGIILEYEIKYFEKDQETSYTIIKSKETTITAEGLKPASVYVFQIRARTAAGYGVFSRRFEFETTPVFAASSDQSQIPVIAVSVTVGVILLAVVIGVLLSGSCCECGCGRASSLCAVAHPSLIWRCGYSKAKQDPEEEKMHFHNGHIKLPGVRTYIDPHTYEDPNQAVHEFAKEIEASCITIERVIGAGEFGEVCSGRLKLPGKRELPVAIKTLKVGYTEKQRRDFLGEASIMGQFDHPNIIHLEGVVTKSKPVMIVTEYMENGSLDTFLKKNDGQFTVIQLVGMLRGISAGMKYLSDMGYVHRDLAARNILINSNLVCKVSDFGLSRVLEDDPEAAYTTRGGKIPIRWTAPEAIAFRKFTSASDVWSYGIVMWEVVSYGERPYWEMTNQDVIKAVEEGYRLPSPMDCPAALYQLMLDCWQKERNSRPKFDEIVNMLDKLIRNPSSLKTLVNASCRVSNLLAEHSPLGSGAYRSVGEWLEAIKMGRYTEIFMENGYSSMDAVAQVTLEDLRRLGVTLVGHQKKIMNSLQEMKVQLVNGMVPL
Chain of 320 wild-type protein kinases (Homo sapiens, UniProt P49841) (P49841 whole entry): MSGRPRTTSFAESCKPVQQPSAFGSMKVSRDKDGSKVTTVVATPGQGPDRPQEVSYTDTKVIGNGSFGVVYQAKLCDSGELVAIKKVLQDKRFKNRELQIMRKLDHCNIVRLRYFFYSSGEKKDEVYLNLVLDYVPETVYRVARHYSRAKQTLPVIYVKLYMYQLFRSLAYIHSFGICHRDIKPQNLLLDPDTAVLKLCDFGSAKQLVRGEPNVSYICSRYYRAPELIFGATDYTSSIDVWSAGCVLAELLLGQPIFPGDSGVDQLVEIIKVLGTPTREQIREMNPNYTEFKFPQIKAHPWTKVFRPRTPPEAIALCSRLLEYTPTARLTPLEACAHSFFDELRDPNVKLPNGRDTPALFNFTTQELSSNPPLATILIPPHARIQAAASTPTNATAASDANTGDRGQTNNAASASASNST
Chain of 320 wild-type protein kinases (Homo sapiens, UniProt P49674) (P49674 whole entry): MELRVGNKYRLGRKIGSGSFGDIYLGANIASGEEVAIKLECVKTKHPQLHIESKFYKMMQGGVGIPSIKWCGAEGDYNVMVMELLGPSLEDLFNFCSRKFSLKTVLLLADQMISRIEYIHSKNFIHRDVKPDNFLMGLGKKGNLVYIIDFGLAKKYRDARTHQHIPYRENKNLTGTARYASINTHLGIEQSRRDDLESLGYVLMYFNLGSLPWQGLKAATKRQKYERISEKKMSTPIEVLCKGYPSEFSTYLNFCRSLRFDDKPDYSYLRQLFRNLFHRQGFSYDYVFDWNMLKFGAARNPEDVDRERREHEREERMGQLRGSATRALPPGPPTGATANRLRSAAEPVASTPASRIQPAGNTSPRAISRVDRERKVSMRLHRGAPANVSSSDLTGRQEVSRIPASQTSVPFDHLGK
Chain of 320 wild-type protein kinases (Homo sapiens, UniProt P29376) (P29376 17-864): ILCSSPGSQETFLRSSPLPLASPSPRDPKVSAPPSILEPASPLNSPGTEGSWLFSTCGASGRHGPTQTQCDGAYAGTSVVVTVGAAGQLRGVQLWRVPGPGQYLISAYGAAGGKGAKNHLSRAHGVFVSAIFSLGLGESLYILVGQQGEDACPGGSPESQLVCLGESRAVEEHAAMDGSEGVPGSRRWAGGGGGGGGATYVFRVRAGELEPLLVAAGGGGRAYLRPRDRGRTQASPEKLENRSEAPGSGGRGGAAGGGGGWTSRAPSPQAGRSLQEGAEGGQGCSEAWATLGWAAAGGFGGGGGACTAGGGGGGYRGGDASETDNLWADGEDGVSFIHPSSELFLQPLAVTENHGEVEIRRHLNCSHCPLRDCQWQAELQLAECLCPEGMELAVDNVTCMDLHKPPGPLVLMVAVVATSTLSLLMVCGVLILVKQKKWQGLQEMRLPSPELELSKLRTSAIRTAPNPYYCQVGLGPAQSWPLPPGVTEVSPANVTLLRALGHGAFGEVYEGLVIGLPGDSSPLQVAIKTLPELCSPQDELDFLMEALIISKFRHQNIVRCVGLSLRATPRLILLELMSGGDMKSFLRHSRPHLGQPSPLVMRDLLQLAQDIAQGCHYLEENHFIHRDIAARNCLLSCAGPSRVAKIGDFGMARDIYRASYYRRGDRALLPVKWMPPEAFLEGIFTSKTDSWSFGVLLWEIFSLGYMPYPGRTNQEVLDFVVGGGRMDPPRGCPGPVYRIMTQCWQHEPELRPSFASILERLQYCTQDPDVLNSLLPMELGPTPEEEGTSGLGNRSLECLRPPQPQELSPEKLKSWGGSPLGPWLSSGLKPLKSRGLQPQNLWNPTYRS

Row | Structure (SMILES) | Residual activity ([1]; 1.0E-06 M) | Residual activity ([1]; 1.0E-07 M) | Residual activity ([2]; GRK3, 1.0E-06 M) | Residual activity ([2]; GRK3, 1.0E-07 M) | Residual activity ([3]; 1.0E-06 M) | Residual activity ([3]; 1.0E-07 M) | Residual activity ([4]; 1.0E-06 M) | Residual activity ([4]; 1.0E-07 M) | Residual activity ([5]; EPHA5, 1.0E-06 M) | Residual activity ([5]; EPHA5, 1.0E-07 M) | Residual activity ([6]; MEK5, 1.0E-06 M) | Residual activity ([6]; MEK5, 1.0E-07 M) | Residual activity ([7]; MEKK3, 1.0E-06 M) | Residual activity ([7]; MEKK3, 1.0E-07 M)
1 | C#Cc1cc(Nc2ncnc3cc(I)ccc23)ccc1Cl [Compound 41] | 77 % of control | 106 % of control | 127 % of control | 131 % of control | 118 % of control | 124 % of control | 84 % of control | 96 % of control | 126 % of control | 128 % of control | 100 % of control | 103 % of control | 107 % of control | 106 % of control
2 | C#Cc1cc(Nc2ncnc3cc(OC)c(OC)cc23)ccc1Cl [Compound 45] | 54 % of control | 100 % of control | 118 % of control | 123 % of control | 120 % of control | 124 % of control | 85 % of control | 84 % of control | 92 % of control | 115 % of control | 108 % of control | 107 % of control | 117 % of control | 115 % of control
